Like-named read-outs stand apart in the source and are kept apart here.
Tested on: HIV-1 LAI envelope single-round infectious reporter virus
Test: Single-round infectious HIV-1 LAI luciferase reporter virus infection of MT2 cells
Type: cell-based
Conditions: Human immunodeficiency virus 1, MT2, 72 h
From the text: • Virus production—Human embryonic Kidney cell line, 293T (HEK 293T), was propagated in Dulbecco's Modified Eagle Medium (Invitrogen, Carlsbad, Calif.) containing 10% fetal bovine serum (FBS, Sigma, St. Louis, Mo.). The human T-cell leukemia cell MT2 (AIDS Research and Reference Reagent Program, Cat. 237) was propagated in RPMI 1640 (Invitrogen, Carlsbad, Calif.) containing 10% fetal bovine serum (FBS, Hyclone, Logan, Utah) • Virus infection—Single-round infectious reporter virus was produced by co-transfecting HEK 293T cells with plasmide expressing the HIV-1 LAI envelope along with a plasmid containing an HIV-1 LAI proviral cDNA with the envelope gene replaced by a firefly luciferase reporter gene (Chen et al., Ref 41). Transfections were performed using lipofectAMINE PLUS reagent as described by the manufacturer (Invitrogen, Carlsbad, Calif.). Experimental Procedure • 1. MT2 cells were plated in black, 384 well plates at a cell density of 5×10^3 cells per well in 25 μl RPMI 1640 containing 10% FBS. • 2. Compound (diluted in dimethylsulfoxide and growth medium) was added to cells at 12.5 μl/well, so that the final assay concentration would be ≦50 nM. • 3. 12.5 μl of single-round infectious reporter virus in Dulbecco's Modified Eagle Medium was added to the plated cells and compound at an approximate multiplicity of infection (MOI) of 0.01, resulting in a final volume of 50 μl per well. • 4. Virus-infected cells were incubated at 37 degrees Celsius in a CO2 incubator and harvested 72 h after infection. • 5. Viral infection was monitored by measuring luciferase expression in the infected cells using a luciferase reporter gene assay kit (Steady-Glo, Promega, Madison, Wis.) as described by the manufacturer. Luciferase activity was then quantified by measuring luminescence using an EnVision Multilabel Plate Readers (PerkinElmer, Waltham, Mass.). • 6. The percent inhibition for each compound was calculated by quantifying the level of luciferase expression in cells infected in the presence of each compound as a percentage of that observed for cells infected in the absence of compound and subtracting such a determined value from 100. • 7. An EC50 provides a method for comparing the antiviral potency of the compounds of the invention. The effective concentration for fifty percent inhibition (EC50) was calculated with the Microsoft Excel Xlfit curve fitting software. For each compound, curves were generated from percent inhibition calculated at 10 different concentrations by using a four parameter logistic model (model 205). Table 1 is the key for the data in Table 2.

[1] = read-out: EC50 Group from Table 1

Compound	EC50 [1] [nM]	EC50 [nM]
COc1cnc(-n2cncn2)c2[nH]cc(C(=O)C(=O)N3CCC(=C4c5ccccc5CCc5ccccc54)CC3)c12 [Compound 1005]	< 500	–
COc1cnc(Cl)c2[nH]cc(C(=O)C(=O)N3CCC(=C4c5ccc(Cl)cc5CCc5cccnc54)CC3)c12 [Compound 1002]	< 500	–
COc1cnc(Cl)c2[nH]cc(C(=O)C(=O)N3CCC(=C4c5ccccc5CCc5ccccc54)CC3)c12 [Compound 1004]	< 500	–
COc1cnc(-n2cnc(C)n2)c2[nH]cc(C(=O)C(=O)N3CCC(=C4c5ccccc5C=Cc5ccccc54)CC3)c12 [Compound 1001]	< 500	0.28
COc1cnc(-n2cnc(C)n2)c2[nH]cc(C(=O)C(=O)N3CCC(=C4c5ccccc5CCc5ccccc54)CC3)c12 [Compound 1009]	< 500	3.72
O=C(C(=O)N1CCC(=C2c3ccccc3CCc3ccccc32)CC1)c1c[nH]c2ccccc12 [Compound 1003]	> 500	692
O=C(C(=O)N1CCC(=C2c3ccccc3CCc3ccccc32)CC1)c1c[nH]c2c(Br)ccc(F)c12 [Compound 1007]	> 500	–
COc1ccc(Br)c2[nH]cc(C(=O)C(=O)N3CCC(=C4c5ccccc5CCc5ccccc54)CC3)c12 [Compound 1006]	< 500	95.3
O=C(C(=O)N1CCC(=C2c3ccc(Cl)cc3CCc3cccnc32)CC1)c1c[nH]c2c(Br)ccc(F)c12 [Compound 1008]	> 500	–
COc1cnc(-n2cnc(C)n2)c2[nH]cc(C(=O)C(=O)N3CCC(=C4c5ccc(Cl)cc5CCc5cccnc54)CC3)c12 [Compound 1010]	< 500	–
